We go through seven molecules from patent US20100316991A1, “HUMAN PARAINFLUENZA VIRUS TYPE 3 EXPRESSING THE ENHANCED GREEN FLUORESCENT PROTEIN FOR USE IN HIGH-THROUGHPUT ANTIVIRAL ASSAYS” (priority 2009, published 2010).

A word on the EC50: it is the concentration giving half of the maximal effect.

The test system of test [1] is rHPIV3-EGFP. Kind of test: 7-Day colorimetric neutral red uptake antiviral assay. It is filed as cell-based, human parainfluenza type 3 virus. The following applies: for SI: 7-Day colorimetric neutral red uptake assay, SI = Mean IC50/Mean EC50; for EC50: Homo sapiens, MA104, 168 h. The procedure:
(§1) Ninety-six-well plates were seeded with MA-104 cells and infected with 3.9×10^3 PFU of either the HPIV-3 WT or rHPIV3-EGFP virus in duplicate at an MOI=0.1 in quadruplicate wells. The plates were incubated at 37° C. and on each day, including the day of infection, the cells were stained with 0.034% neutral red for 2 hours at 37° C., washed once with PBS, and the NR extracted with ethanol:Sörenson's citrate buffer for 30 min while rocking at room temperature. Absorbance, at 540 and 405 nm wavelengths, was read with an Opsys MR™ spectrophotometer and Revelation Quicklink software, version 4.24 (both from Dynex Technologies, Chantilly, Va.). The two curves was compared and statistically analyzed by ANOVA.
(§2) Six 96-well plates were seeded with MA-104 cells to evaluate the NR and EGFP assays in parallel. A format was used allowing seven compounds to be tested per plate. Each compound was plated using four 10-fold dilutions in triplicate and starting the concentration at 1000 μg/mL for ribavirin (positive control), and ribamidine; 100 μg/mL for 2-thio-6-azauridine, 3-deazaguanosine, 1-(4-methoxybenzyloxy) adenosine, selenazofurin, and EICAR; 100 μM for CS-978, CS-1164, CS-1196, CS-1227, PSI-0194, PSI-5067, PSI-5095, PSI-5098, PSI-5452, PSI-5449, PSI-5741, PSI-5746, PSI-5747, PSI-5852, and PSI-5990; and 1 μg/mL for DAS181. Compounds that were reconstituted in DMSO were diluted down to working concentrations of 0.5% DMSO and less to eliminate cell toxicity due to the DMSO. Two of the replicates were infected with 3.9×10^3 PFU of rHPIV3-EGFP, at an MOI=0.1, while the remaining replicate served as a toxicity control with no virus added. Three of the plates were incubated at 37° C. for 3 days, after which, the toxicity and cell control cells were stained with NR following the same procedure described earlier. NR fluorescence was measured with the FMax® fluorometer, using the 544 nm excitation and 612 nm emission filters. The untreated virus control and treated, infected cells were washed with PBS, fresh PBS was added, and the fluorescence was measured with the FMax® fluorometer, using the 485 nm excitation and 538 nm emission filters. The other three plates were assayed using the traditional colorimetric NR assay. After incubation for 7 days at 37° C., the cells were stained with NR following the same procedure described earlier. For the NR assay, EC50 and 50% cell inhibitory concentrations (IC50) were calculated by linear regression from percents of untreated, uninfected cell and untreated, infected virus controls. For the EGFP assay, EC50 values were calculated by linear regression using percents of untreated, infected virus controls and IC50 values were also calculated by linear regression using percents of untreated, uninfected cell control. The EC50 and IC50 values for each compound for both assays were compared and statistically analyzed by unpaired, two-tailed Student's t-test. A selectivity index (SI) was calculated for each compound for each assay using the formula: SI=Mean IC50/Mean EC50. Compounds were sorted into positive, SI≧10, and negative, SI<10, categories for the combination of NR and EGFP assays. Using the NR assay as the gold standard, sensitivity, true positives/(true positives+false negatives), and specificity, true negatives/(true negatives+false positives), were calculated.

Test [2] has as its system MA-104 cells. Kind of test: 7-Day colorimetric neutral red uptake assay, toxicity control (no virus). It is filed as cell-based, African green monkey. To be noted: Chlorocebus sabaeus, MA104, 168 h, uninfected MA-104 cells, mean of three assays ± SD, read-out: IC50 (50% cell inhibitory concentration). As to the method: as §1, §2
Test [3] has as its system rHPIV3-EGFP. Kind of test: 3-Day EGFP fluorescent antiviral assay. Type of test: cell-based, human parainfluenza type 3 virus. To be noted: for EC50: MA104, 72 h. As to the method:
as §2

Test [4] concerns MA-104 cells. Kind of test: 3-Day EGFP assay, toxicity control (no virus, NR fluorescence). To be noted: Chlorocebus sabaeus, MA104, 72 h, 3-Day EGFP fluorescent assay, uninfected MA-104 cells, read-out: IC50 (50% cell inhibitory concentration). It is filed as cell-based, African green monkey. As to the method:
as §2

For the next test, the system named is HPIV-3 WT. As to the kind of experiment: Antiviral sensitivity CPE assay (neutral red), HPIV-3 WT. It is filed as cell-based, human parainfluenza type 3 virus. To be noted: Human respirovirus 3, MA104, 168 h, MA-104 cells, MOI=0.1, 7 days, NR, mean ± SD of three replicates. The procedure:
as §1
(§3) An antiviral CPE assay was used to evaluate the antiviral sensitivity profiles of the HPIV-3 WT and rHPIV3-EGFP viruses. Briefly, three compounds: ribavirin (positive control), 2-thio-6-azauridine, and DAS181, were plated in four 10-fold dilutions in five replicates on 96-well plates seeded with MA-104 cells using starting concentrations of 1000, 100, and 1 μg/mL, respectively. […] Fifty percent effective concentrations (EC50) were calculated by linear regression using percents of untreated, uninfected cell and untreated, infected virus controls. EC50 values were compared and statistically analyzed by the unpaired, two-tailed Student's t-test.

In test [5] the test system is rHPIV3-EGFP. As to the kind of experiment: Antiviral sensitivity CPE assay (neutral red), rHPIV3-EGFP. It is filed as cell-based, human parainfluenza type 3 virus. To be noted: MA104, 168 h. The procedure:
as §1, §3

Converted amounts (≈) assume the structure as drawn. Where only a bound is given, the exact number is not on record here.

For `N=C(N)c1ncn([C@@H]2O[C@H](CO)[C@@H](O)[C@H]2O)n1` [Ribamidine, 1-[(2R,3R,4S,5R)-3,4-dihydroxy-5-(hydroxymethyl)oxolan-2-yl]-1,2,4-triazole-3-carboximidamide], the SI in the test on rHPIV3-EGFP [1] was 7; with rHPIV3-EGFP [3], over 15. Further, the concentration for a half-maximal effect (EC50) in the test on rHPIV3-EGFP [1] was determined as 57 ± 15 µg/mL; in the test with rHPIV3-EGFP [3], 68 ± 2.6 µg/mL. In addition, the IC50 was 390 ± 20 µg/mL in the test with MA-104 cells [2] and over 1000 µg/mL with MA-104 cells [4]. Further, in the test on rHPIV3-EGFP [3], the “activity category by SI in the EGFP assay” value was “moderately active (between 10 and 49 moderately active)”.
Consider `NC(=O)c1ncn([C@@H]2O[C@H](CO)[C@@H](O)[C@H]2O)n1` [Ribavirin, 1-[(2R,3R,4S,5R)-3,4-dihydroxy-5-(hydroxymethyl)oxolan-2-yl]-1,2,4-triazole-3-carboxamide], for which the EC50 in the test on HPIV-3 WT was found to be 35 ± 2.5 µg/mL (≈ 143 µM); with rHPIV3-EGFP [5], 19 ± 4.9 µg/mL (≈ 77.8 µM); in the test with rHPIV3-EGFP [1], 20 ± 3.6 µg/mL; in the test with rHPIV3-EGFP [3], 31 µg/mL. The results for the SI with rHPIV3-EGFP [1] and in the test with rHPIV3-EGFP [3] were 12 and over 32, respectively. In addition, the values for the IC50 in the test with MA-104 cells [2] and with MA-104 cells [4] were 230 ± 92 µg/mL and over 1000 µg/mL, respectively.
On to `O=c1cnn([C@@H]2O[C@H](CO)[C@@H](O)[C@H]2O)c(=S)[nH]1` [2-Thio-6-azauridine, 2-[(2R,3R,4S,5R)-3,4-Dihydroxy-5-(hydroxymethyl)oxolan-2-yl]-3-sulfanylidene-1,2,4-triazin-5-one], for which the EC50 in the test on HPIV-3 WT came to 1.1 ± 0.058 µg/mL (≈ 4.21 µM); in the test with rHPIV3-EGFP [5] it was 0.63 ± 0.075 µg/mL (≈ 2.41 µM); with rHPIV3-EGFP [1] it was 0.6 ± 0.095 µg/mL; in the test on rHPIV3-EGFP [3], 0.89 ± 0.13 µg/mL. The figures for the SI in the test with rHPIV3-EGFP [1] and in the test on rHPIV3-EGFP [3] were 28 and over 110, respectively. The IC50 is 17 ± 3.5 µg/mL with MA-104 cells [2] and over 100 µg/mL with MA-104 cells [4].
For `NC(=O)c1c[se]c([C@@H]2O[C@H](CO)[C@@H](O)[C@H]2O)n1` [Selenazofurin, 2-[(2R,3R,4S,5R)-3,4-dihydroxy-5-(hydroxymethyl)oxolan-2-yl]-1,3-selenazole-4-carboxamide], in the test with rHPIV3-EGFP [1], the SI is 7 and the EC50 is 4.9 ± 1.4 µg/mL. Also, in the test on MA-104 cells [2], the IC50 came to 34 ± 7.2 µg/mL. Moreover, in the test with rHPIV3-EGFP [3], the EC50 turned out to be 3.5 ± 0.1 µg/mL; the SI was over 29; the “activity category by SI in the EGFP assay” value is “moderately active (between 10 and 49 moderately active)”. In the test on MA-104 cells [4], the IC50 is over 100 µg/mL.
On to `COc1ccc(COn2cnc3c(ncn3[C@@H]3O[C@H](CO)[C@@H](O)[C@H]3O)c2=N)cc1` [1-(4-methoxybenzyloxy) adenosine], for which the SI with rHPIV3-EGFP [1] and in the test with rHPIV3-EGFP [3] was 0 throughout. In addition, the EC50 was over 31 µg/mL with rHPIV3-EGFP [1] and over 41 µg/mL in the test with rHPIV3-EGFP [3]. For the same molecule, the values for the IC50 in the test with MA-104 cells [2] and in the test on MA-104 cells [4] were 31 ± 1.2 µg/mL and 41 ± 2.5 µg/mL, respectively.
As for `C#Cc1c(C(N)=O)ncn1[C@@H]1O[C@H](CO)[C@@H](O)[C@H]1O` [EICAR, 1-[(2R,3R,4S,5R)-3,4-dihydroxy-5-(hydroxymethyl)oxolan-2-yl]-5-ethynylimidazole-4-carboxamide], the SI in the test with rHPIV3-EGFP [1] is reported as over 120; in the test with rHPIV3-EGFP [3] it was over 280. In addition, the concentration for a half-maximal effect (EC50) in the test with rHPIV3-EGFP [1] worked out at 0.81 ± 0.061 µg/mL; in the test with rHPIV3-EGFP [3] it was 0.35 µg/mL. In addition, the IC50 with MA-104 cells [2] and in the test on MA-104 cells [4] was over 100 µg/mL each time.
As to `Nc1cc2c(ncn2[C@@H]2O[C@H](CO)[C@@H](O)[C@H]2O)c(=O)[nH]1` [3-Deazaguanosine, 6-amino-1-[(2R,3R,4S,5R)-3,4-dihydroxy-5-(hydroxymethyl)oxolan-2-yl]-5H-imidazo[4,5-c]pyridin-4-one], the SI with rHPIV3-EGFP [1] is reported as under 1; with rHPIV3-EGFP [3], over 5. Besides, the EC50 is over 31 µg/mL with rHPIV3-EGFP [1] and 21 µg/mL in the test on rHPIV3-EGFP [3]. Besides, the results for the IC50 with MA-104 cells [2] and in the test on MA-104 cells [4] were 34 ± 3.5 µg/mL and over 100 µg/mL, respectively.
